Measured values: US7985771B2, “Furanone derivatives” (Monsanto Technology LLC, priority 2002, dated 2011)

What follows are compounds tested on ELAM (E-selectin) expression in endothelial cells (assay: E-selectin (ELAM) cell inflammation assay). Conditions: LPS and IL-1β stimulation, read-out: reduction of expression of ELAM, EC50.
Format: cell-based
Method: Endothelial-Leukocyte Adhesion Molecule (ELAM), also known as E-selectin, is expressed on the surface of endothelial cells. In this assay, lipopolysaccharide (LPS) and IL-1β are used to stimulate the expression of ELAM; test agents are tested for their abilities to reduce this expression, in accordance with studies showing that reduction of leukocyte adhesion to endothelial cell surface is associated with decreased cellular damage (e.g., Takada, M., Et al., Transplantation 64: 1520-25, 1997; Steinberg, J. B., et al., J. Heart Lung Trans. 13:306-313, 1994).
Endothelial cells may be selected from any of a number of sources and cultured according to methods known in the art; including, for example, coronary artery endothelial cells, human brain microvascular endothelial cells (HBMEC; Hess, D.C., et al., Neurosci. Left. 213(1): 37-40, 1996), or lung endothelial cells. Cells are conveniently cultured in 96-well plates. Cells are stimulated by adding a solution to each well containing 10 μg/ml LPS and 100 pg/ml IL-1β for 6 hours in the presence of test agent (specific concentrations and time may be adjusted depending on the cell type). Treatment buffer is removed and replaced with pre-warmed Fixing Solution® (100 μl/well) for 25 minutes at room temperature. Cells are then washed 3×, then incubated with Blocking Buffer (PBS+2% FBS) for 25 minutes at room temperature. Blocking Buffer containing Monoclonal E-Selectin Antibody (1:750, Sigma Catalog #S-9555) is added to each well. Plates are sealed and stored at 4° overnight. Plates are washed 4× with 160 μL Blocking Buffer per well. Second Antibody-HRP diluted 1:5000 in Blocking Buffer is then added (100 μL/well), and plates are incubated at room temperature (protected from light) for two hours. Plates are then washed 4× with Blocking Buffer before addition of 100 μL of ABTS Substrate solution at room temperature (Zymed, Catalog #00-2024). Wells are allowed to develop for 35 minutes, before measurement at 402 nm in a Fluoroskan® Reader with shake program for 10 seconds. Positive results are recorded as a decrease in ELAM concentration in tested wells, as compared to control wells.

| Structure (SMILES) | EC50 [µM] |
| --- | --- |
| CCOC(=O)C1(C[S+]([O-])Cc2ccco2)OC(=O)C(O)=C1S(=O)(=O)Cc1ccco1 (stereo not drawn) [2-(Furan-2-ylmethanesulfinylmethyl)-3-(furan-2-ylmethanesulfonyl)-4-hydroxy-5-oxo-2,5-dihydro-furan-2-carboxylic acid ethyl ester] | ≤ 30 |
| CCOC(=O)C1OC(=O)C(O)=C1Sc1nc2ccccc2[nH]1 (stereo not drawn) [3-(1H-Benzoimidazol-2-ylsulfanyl)-4-hydroxy-5-oxo-2,5-dihydro-furan-2-carboxylic acid ethyl ester] | ≤ 30 |
| CCOC(=O)C1(CSc2ccccc2Cl)OC(=O)C(O)=C1Sc1ccccc1Cl (stereo not drawn) [3-(2-Chloro-phenylsulfanyl)-2-(2-chloro-phenylsulfanylmethyl)-4-hydroxy-5-oxo-2,5-dihydro-furan-2-carboxylic acid ethyl ester] | ≤ 30 |
| CN(C)CCSCC1(C(=O)O)OC(=O)C(O)=C1SCCN(C)C (stereo not drawn) [3-(2-Dimethylamino-ethylsulfanyl)-2-(2-dimethylamino-ethylsulfanylmethyl)-4-hydroxy-5-oxo-2,5-dihydro-furan-2-carboxylic acid] | ≤ 30 |
| CCOC(=O)C1(CSc2nc3cc(Cl)c(Cl)cc3[nH]2)OC(=O)C(O)=C1Sc1nc2cc(Cl)c(Cl)cc2[nH]1 (stereo not drawn) [3-(5,6-Dichloro-1H-benzoimidazol-2-ylsulfanyl)-2-(5,6-dichloro-1H-benzoimidazol-2-ylsulfanylmethyl)-4-hydroxy-5-oxo-2,5-dihydro-furan-2-carboxylic acid ethyl ester] | ≤ 30 |
| CCOC(=O)C1(CSc2nc3cc(Cl)ccc3s2)OC(=O)C(O)=C1Sc1nc2cc(Cl)ccc2s1 (stereo not drawn) [3-(5-Chloro-benzothiazol-2-ylsulfanyl)-2-(5-chloro-benzothiazol-2-ylsulfanylmethyl)-4-hydroxy-5-oxo-2,5-dihydro-furan-2-carboxylic acid ethyl ester] | ≤ 30 |
| O=C1OC(CSc2nc3ccccc3s2)(C(=O)O)C(Sc2nc3ccccc3s2)=C1O (stereo not drawn) [3-(Benzothiazol-2-ylsulfanyl)-2-(benzothiazol-2-ylsulfanylmethyl)-4-hydroxy-5-oxo-2,5-dihydro-furan-2-carboxylic acid] | ≤ 30 |
| CCCCCCSCC1(C(=O)OCC)OC(=O)C(O)=C1SCCCCCC (stereo not drawn) [3-Hexylsulfanyl-2-hexylsulfanylmethyl-4-hydroxy-5-oxo-2,5-dihydro-furan-2-carboxylic acid ethyl ester] | ≤ 30 |
| O=C1NC(=O)C2(OC(=O)C(O)=C2Sc2nc3ccccc3[nH]2)C(=O)N1 [4-(1H-Benzoimidazol-2-ylsulfanyl)-3-hydroxy-1-oxa-7,9-diaza-spiro[4,5]dec-3-ene-2,6,8,10-tetraone] | ≤ 30 |
| O=C1OC(CO)(CSc2nc3cc(S(=O)(=O)O)ccc3[nH]2)C(Sc2nc3cc(S(=O)(=O)O)ccc3[nH]2)=C1O (stereo not drawn) [4-(5-sulfo-1H-benzoimidazol-2-ylsulfanyl)-5-(5-sulfo-1H-benzoimidazol-2-ylsulfanylmethyl)-3-hydroxy-5-hydroxymethyl-5H-furan-2-one] | ≤ 30 |
| CCOC(=O)C1(CSCc2ccco2)OC(=O)C(OC(C)=O)=C1SCc1ccco1 (stereo not drawn) [4-Acetoxy-3-(furan-2-ylmethylsulfanyl)-2-(furan-2-ylmethylsulfanylmethyl)-5-oxo-2,5-dihydro-furan-2-carboxylic acid ethyl ester] | ≤ 30 |
| CCOC(=O)C1(CSCc2ccccc2)OC(=O)C(OC(C)=O)=C1SCc1ccccc1 (stereo not drawn) [4-Acetoxy-3-benzylsulfanyl-2-benzylsulfanylmethyl-5-oxo-2,5-dihydro-furan-2-carboxylic acid ethyl ester] | ≤ 30 |
| CCOC(=O)C1(CSc2nc3ccccc3n2CC)OC(=O)C(OCC)=C1Sc1nc2ccccc2n1CC (stereo not drawn) [4-Ethoxy-3-(1-ethyl-1H-benzoimidazol-2-ylsulfanyl)-2-(1-ethyl-1H-benzoimidazol-2-ylsulfanylmethyl)-5-oxo-2,5-dihydro-furan-2-carboxylic acid ethyl ester] | ≤ 30 |
| Cc1ccc2[nH]c(SC3=C(O)C(=O)OC3C(=O)OC3CC(C)CCC3C(C)C)nc2c1 (stereo not drawn) [4-Hydroxy-3-(5-methyl-1H-benzoimidazol-2-ylsulfanyl)-5-oxo-2,5-dihydro-furan-2-carboxylic acid 2-isopropyl-5-methyl-cyclohexyl ester] | ≤ 30 |
| CCOC(=O)C1(CSc2ccc3ccccc3c2)OC(=O)C(O)=C1Sc1ccc2ccccc2c1 (stereo not drawn) [4-Hydroxy-3-(naphthalen-2-ylsulfanyl)-2-(naphthalen-2-ylsulfanylmethyl)-5-oxo-2,5-dihydro-furan-2-carboxylic acid ethyl ester] | ≤ 30 |
| CCOC(=O)C1(CSc2nnnn2-c2ccccc2)OC(=O)C(O)=C1Sc1nnnn1-c1ccccc1 (stereo not drawn) [4-Hydroxy-5-oxo-3-(1-phenyl-1H-tetrazol-5-ylsulfanyl)-2-(1-phenyl-1H-tetrazol-5-ylsulfanylmethyl)-2,5-dihydro-furan-2-carboxylic acid ethyl ester] | ≤ 30 |
| CCOC(=O)C1(CSCCS(=O)(=O)O)OC(=O)C(O)=C1SCCS(=O)(=O)O (stereo not drawn) [4-Hydroxy-5-oxo-3-(2-sulfo-ethylsulfanyl)-2-(2-sulfo-ethylsulfanylmethyl)-2,5-dihydro-furan-2-carboxylic acid ethyl ester] | ≤ 30 |
| CCOC(=O)C1(CSc2ccnc3cc(C(F)(F)F)ccc23)OC(=O)C(O)=C1Sc1ccnc2cc(C(F)(F)F)ccc12 (stereo not drawn) [4-Hydroxy-5-oxo-3-(7-trifluoromethyl-quinolin-4-ylsulfanyl)-2-(7-trifluoromethyl-quinolin-4-ylsulfanylmethyl)-2,5-dihydro-furan-2-carboxylic acid ethyl ester] | ≤ 30 |
| CCOC(=O)C1(CSC(=S)N2CCCC2)OC(=O)C(O)=C1SC(=S)N1CCCC1 (stereo not drawn) [4-Hydroxy-5-oxo-3-(pyrrolidine-1-carbothioylsulfanyl)-2-(pyrrolidine-1-carbothioylsulfanylmethyl)-2,5-dihydro-furan-2-carboxylic acid ethyl ester] | ≤ 30 |
| CN(C)CC(=O)OCC1(CSc2nc3ccccc3[nH]2)OC(=O)C(O)=C1Sc1nc2ccccc2[nH]1 (stereo not drawn) [Dimethylamino-acetic acid 3-(1H-benzoimidazol-2-ylsulfanyl)-2-(1H-benzoimidazol-2-ylsulfanylmethyl)-4-hydroxy-5-oxo-2,5-dihydro-furan-2-ylmethyl ester] | ≤ 30 |
| CCOC(=O)[C@]1(CSCC(NC(=O)CCC(N)C(=O)O)C(=O)NCC(=O)O)OC(=O)C(O)=C1SCC(NC(=O)CCC(N)C(=O)O)C(=O)NCC(=O)O (stereo partly drawn) [R-3-[2-(4-Amino-4-carboxy-butyrylamino)-2-(carboxymethyl-carbamoyl)-ethylsulfanyl]-2-[2-(4-amino-4-carboxy-butyrylamino)-2-(carboxymethyl-carbamoyl)ethylsulfanylmethyl]-4-hydroxy-5-oxo-2,5-dihydro-furan-2-carboxylic acid ethyl ester] | ≤ 30 |
